According to patent US9725442B2, “Heterocyclic derivative having PGD2 receptor antagonist activity” (Shionogi & Co., Ltd., priority 2011, dated 2017):
Like-named read-outs stand apart in the source and are kept apart here.

Legend:
Human DP1 receptor = Human DP1 receptor (Homo sapiens (Human), UniProt Q13258); test: Human DP1 inhibitory activity in DP1-expressing cell (PGD2-induced cAMP); format: cell-based; settings: category of cAMP IC50, human DP1 receptor expressing Jurkut cell
Experimental: Compounds were categorized as AA (cAMP is less than 100 nM) and A (cAMP is more than 100 nM and less than 5000 nM) as shown in Table 99 and 100.

CRTH2 = CRTH2 (Homo sapiens (Human), UniProt Q9Y5Y4); test: CRTH2 receptor binding inhibitory activity ([3H]-PGD2 displacement, membranes of CRTH2-expressing K562 cell)
Experimental: Cell membrane was prepared from CRTH2-expressing K562 cell. The cell membrane (20 μg/well) was mixed with reaction buffer (50 mM Tris/HCl, pH 7.4, 10 mM MgCl2). Then, [^3H]-PGD2 was added to the mixture and incubated for 60 min at room temperature. […] Then, the mixture was filtrated with glass paper immediately. The filter paper was washed several times and radio activity on the filter was measured. Specific binding was defined as difference between total and non-specific binding (radio activity with 10 μM PGD2). Ki values for each compound were calculated from displacement curve.

[1] = CRTH2 receptor binding, [3H]-PGD2 displacement, membrane of CRTH2-expressing K562 cell, categorized AAAA/AAA, read-out: Ki
[2] = [3H]-PGD2 displacement, membrane of CRTH2-expressing K562 cell, read-out: Ki

Sequence of Human DP1 receptor (Q13258 whole entry): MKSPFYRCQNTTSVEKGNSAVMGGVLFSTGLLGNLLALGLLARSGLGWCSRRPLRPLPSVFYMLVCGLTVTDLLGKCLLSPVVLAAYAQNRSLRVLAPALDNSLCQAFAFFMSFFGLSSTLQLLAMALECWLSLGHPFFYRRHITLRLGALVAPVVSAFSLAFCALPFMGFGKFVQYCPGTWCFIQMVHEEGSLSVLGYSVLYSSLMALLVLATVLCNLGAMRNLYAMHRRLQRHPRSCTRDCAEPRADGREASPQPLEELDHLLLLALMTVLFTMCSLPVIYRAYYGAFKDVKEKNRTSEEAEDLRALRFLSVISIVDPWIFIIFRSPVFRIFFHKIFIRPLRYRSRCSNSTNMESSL
Sequence of CRTH2 (Q9Y5Y4 whole entry): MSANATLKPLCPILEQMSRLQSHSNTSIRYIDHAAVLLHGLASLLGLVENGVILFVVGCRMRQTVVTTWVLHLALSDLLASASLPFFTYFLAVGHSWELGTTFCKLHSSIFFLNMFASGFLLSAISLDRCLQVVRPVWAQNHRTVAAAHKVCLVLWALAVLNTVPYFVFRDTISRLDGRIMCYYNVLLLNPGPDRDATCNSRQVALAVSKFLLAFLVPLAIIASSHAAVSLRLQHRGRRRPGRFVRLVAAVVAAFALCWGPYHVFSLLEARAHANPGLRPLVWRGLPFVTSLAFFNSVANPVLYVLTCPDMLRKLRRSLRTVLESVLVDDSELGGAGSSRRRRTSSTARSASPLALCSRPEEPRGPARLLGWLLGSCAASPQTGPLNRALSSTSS

| SMILES | IC50 (Human DP1 receptor) [nM] | Ki (CRTH2; [1]) [nM] | Ki (CRTH2; [2]) [nM] | Ki (CRTH2) [nM] |
| --- | --- | --- | --- | --- |
| CC(C)Oc1ccc(S(=O)(=O)N2C[C@H](n3nc(CC(=O)O)c4ccc(F)cc43)C[C@H]2C(=O)N(C)C)cc1 [Compound I-5] | 100 to 5000 | 100 to 5000 | – | – |
| CCc1ccc(S(=O)(=O)N2C[C@@H](C)[C@@H](n3nc(CC(=O)O)c4ccccc43)C2)cc1 [Compound I-243] | < 100 | 100 to 5000 | – | – |
| C[C@@H]1CN(S(=O)(=O)c2ccc(OC(F)F)cc2)C[C@@H]1n1nc(CC(=O)O)c2ccc(Cl)cc21 [Compound I-134] | < 100 | < 100 | – | – |
| CCOc1ccc(S(=O)(=O)N2C[C@@H](C)[C@@H](n3nc(CC(=O)O)c4ccccc43)C2)c(C=NOC)c1 [Compound I-181] | 100 to 5000 | 100 to 5000 | – | – |
| CCOc1ccc(S(=O)(=O)N2C[C@@H](C)[C@@H](n3nc(CC(=O)O)c4ccccc43)C2)c(CCCOC)c1 [Compound I-183] | 100 to 5000 | < 100 | – | – |
| CCOc1ccc(S(=O)(=O)N2C[C@@H](C)[C@@H](n3nc(CC(=O)O)c4ccc(C(F)(F)F)cc43)C2)cc1 [Compound I-129] | < 100 | < 100 | – | – |
| CC(C)Oc1ccc(S(=O)(=O)N2C[C@@H](C)[C@@H](n3nc(CC(=O)O)c4cccnc43)C2)cc1 [Compound I-145] | 100 to 5000 | < 100 | 3.1 | – |
| CC(C)Oc1ccc(S(=O)(=O)N2C[C@H](n3nc(CC(=O)O)c4ccc(F)cc43)C[C@@H]2c2ccccn2)cc1 [Compound I-358] | 100 to 5000 | 100 to 5000 | – | – |
| CCOc1ccc(S(=O)(=O)N2C[C@H](n3nc(CC(=O)O)c4ccccc43)[C@H](C)[C@H]2C#N)cc1 [Compound I-332] | 100 to 5000 | < 100 | – | – |
| CC(C)Oc1ccc(S(=O)(=O)N2C[C@H](n3nc(CC(=O)O)c4ccc(F)cc43)C[C@@H]2c2nc[nH]n2)cc1 [Compound I-55] | 100 to 5000 | 100 to 5000 | – | – |
| Cc1ccc2c(CC(=O)O)nn([C@H]3CN(S(=O)(=O)c4ccc(OC(F)(F)F)cc4)C[C@H]3C)c2c1 [Compound I-231] | < 100 | < 100 | – | – |
| CC(C)Oc1ccc(S(=O)(=O)N2C[C@H](n3nc(CC(=O)O)c4ccc(F)cc43)C[C@H]2C(N)=O)cc1 [Compound I-2] | 100 to 5000 | 100 to 5000 | – | – |
| CCOCCCOc1ccc(S(=O)(=O)N2C[C@@H](C)[C@@H](n3nc(CC(=O)O)c4ccccc43)C2)cc1 [Compound I-273] | 100 to 5000 | 100 to 5000 | – | – |
| C[C@@H]1CN(S(=O)(=O)c2ccc(OCF)cc2)C[C@@H]1n1nc(CC(=O)O)c2ccccc21 [Compound I-270] | < 100 | < 100 | – | – |
| C[C@@H]1CN(S(=O)(=O)c2ccc(OC(F)F)cc2)C[C@H]1n1nc(CC(=O)O)c2ccccc21 [Compound I-195] | 100 to 5000 | < 100 | – | – |
| CC(C)Oc1ccc(S(=O)(=O)N2C[C@H](n3nc(CC(=O)O)c4ccc(F)cc43)C[C@@H]2c2ccccn2)cc1 [Compound I-351] | 100 to 5000 | 100 to 5000 | – | – |
| CCOc1ccc(S(=O)(=O)N2C[C@H](n3nc(CC(=O)O)c4ccccc43)C[C@@H]2CF)cn1 [Compound I-275] | 100 to 5000 | 100 to 5000 | – | – |
| COc1ccc(S(=O)(=O)N2C[C@@H](C)[C@@H](n3nc(CC(=O)O)c4ccc(C)cc43)C2)cc1 [Compound I-230] | < 100 | < 100 | – | – |
| CCOc1ccc(S(=O)(=O)N2C[C@@H](C)[C@@H](n3nc(CC(=O)O)c4ccccc43)C2)c(/C=C/COC)c1 [Compound I-182] | 100 to 5000 | < 100 | – | – |
| CC(C)Oc1ccc(S(=O)(=O)N2C[C@H](n3nc(CC(=O)O)c4ccc(F)cc43)C[C@@H]2c2ncc[nH]2)cc1 [Compound I-363] | 100 to 5000 | 100 to 5000 | 170 | – |
| Cc1nc2ccc(S(=O)(=O)N3C[C@@H](C)[C@@H](n4nc(CC(=O)O)c5ccccc54)C3)cc2s1 [Compound I-214] | < 100 | 100 to 5000 | – | – |
| CCS(=O)(=O)CCOc1ccc(S(=O)(=O)N2C[C@@H](C)[C@@H](n3nc(CC(=O)O)c4ccccc43)C2)cc1 [Compound I-305] | 100 to 5000 | 100 to 5000 | – | – |
| CCOc1ccc(S(=O)(=O)N2C[C@@H](C)[C@@H](n3nc(Cc4cc(O)no4)c4ccccc43)C2)cc1 [Compound I-341] | 100 to 5000 | 100 to 5000 | – | – |
| CCOc1ccc(S(=O)(=O)N2C[C@@H](C)[C@@H](n3nc(CC(=O)O)c4ccc(OC)cc43)C2)cn1 [Compound I-226] | 100 to 5000 | < 100 | – | – |
| CC(C)Oc1ccc(S(=O)(=O)N2C[C@@H](CCF)[C@@H](n3nc(CC(=O)O)c4ccc(F)cc43)C2)cc1 [Compound I-45] | 100 to 5000 | < 100 | – | – |
| CCOc1ccc(S(=O)(=O)N2C[C@@H](C)[C@@H](n3nc(CC(=O)O)c4ccccc43)C2)c(/C=C/c2ccccc2)c1 [Compound I-185] | 100 to 5000 | < 100 | – | – |
| O=C(O)Cc1nn([C@H]2C[C@H]3CC[C@@H](C2)N3S(=O)(=O)c2ccc(F)cc2)c2cc(F)ccc12 [Compound I-82] | 100 to 5000 | – | – | 100 to 5000 |

| SMILES | IC50 (Human DP1 receptor) [nM] | Ki (CRTH2; [1]) [nM] | Ki (CRTH2; [2]) [nM] | Ki (CRTH2) [nM] |
| --- | --- | --- | --- | --- |
| CC(C)Oc1ccc(S(=O)(=O)N2C[C@H](n3nc(CC(=O)O)c4ccc(F)cc43)C[C@@H]2COc2nc3ccccc3s2)cc1 [Compound I-334] | < 100 | 100 to 5000 | – | – |
| CCOc1ccc(S(=O)(=O)N2C[C@@H](C)[C@@H](n3nc(CC(=O)O)c4ccccc43)C2)c(Br)c1 [Compound I-216] | < 100 | < 100 | – | – |
| CO[C@@H]1CN(S(=O)(=O)c2ccc(OC(C)C)cc2)C[C@@H]1n1nc(CC(=O)O)c2ccc(F)cc21 [Compound I-30] | 100 to 5000 | 100 to 5000 | 140 | – |
| CCc1ccc(S(=O)(=O)N2C[C@@H](C)[C@@H](n3nc(CC(=O)O)c4ccc(Cl)cc43)C2)cc1 [Compound I-141] | < 100 | < 100 | – | – |
| CCOc1ccc(S(=O)(=O)N2C[C@@H](C)[C@@H](n3nc(CC(=O)O)c4ccccc43)C2)c(/C=C/CO)c1 [Compound I-279] | 100 to 5000 | < 100 | – | – |
| C[C@@H]1CN(S(=O)(=O)c2ccc(Oc3ccccc3)nc2)C[C@@H]1n1nc(CC(=O)O)c2ccccc21 [Compound I-213] | 100 to 5000 | 100 to 5000 | – | – |
| CC(C)Oc1ccc(S(=O)(=O)N2[C@H](C)C[C@H](n3nc(CC(=O)O)c4ccc(F)cc43)C[C@@H]2C)cc1 [Compound I-73] | < 100 | 100 to 5000 | – | – |
| COc1ccccc1OC[C@H]1C[C@@H](n2nc(CC(=O)O)c3ccc(F)cc32)CN1S(=O)(=O)c1ccc(OC(C)C)cc1 [Compound I-344] | < 100 | 100 to 5000 | – | – |
| CC(C)Oc1ccc(S(=O)(=O)N2C[C@H](n3nc(CC(=O)O)c4ccc(F)cc43)C[C@@H]2COCCCOc2ccccc2)cc1 [Compound I-289] | 100 to 5000 | 100 to 5000 | – | – |
| CCOc1ccc(S(=O)(=O)N2C[C@@H](C)[C@@H](n3nc(CC(=O)O)c4ccccc43)C2)nc1 [Compound I-247] | 100 to 5000 | < 100 | 15 | – |
| CCOc1cc(F)c(S(=O)(=O)N2C[C@@H](C)[C@@H](n3nc(CC(=O)O)c4ccc(F)cc43)C2)c(F)c1 [Compound I-125] | 100 to 5000 | < 100 | – | – |
| CC(C)Oc1ccc(S(=O)(=O)N2CC[C@@H](n3nc(CC(=O)O)c4ccc(F)cc43)[C@H]2C)cc1 [Compound I-1] | 100 to 5000 | 100 to 5000 | – | – |
| CCOc1ccc(S(=O)(=O)N2C[C@@H](n3nc(CC(=O)O)c4ccccc43)[C@@H]3COC[C@@H]32)cc1 [Compound I-367] | – | 100 to 5000 | 100 | – |
| Cc1ccc2c(CC(=O)O)nn([C@H]3CN(S(=O)(=O)c4ccc(OC(C)C)cc4)C[C@@]3(C)F)c2c1 [Compound I-89] | < 100 | – | – | – |
| CCOc1ccc(S(=O)(=O)N2C[C@@H](C)[C@@H](n3nc(C(F)C(=O)O)c4ccccc43)C2)cc1 (stereo partly shown) [Compound I-337] | 100 to 5000 | – | – | – |
| CC(C)Oc1ccc(S(=O)(=O)N2C[C@H](n3nc(CC(=O)O)c4ccc(F)cc43)C[C@@H]2COc2ccccn2)cc1 [Compound I-339] | 100 to 5000 | – | – | – |
| CCOc1ccc(S(=O)(=O)N2C[C@H](n3nc(CC(=O)O)c4ccccc43)[C@@](C)(F)C2)cc1 [Compound I-309] | < 100 | – | – | – |
| CC(C)Oc1ccc(S(=O)(=O)N2C[C@H](n3nc(CC(=O)O)c4ccc(F)cc43)C[C@@H]2COCC(O)CO)cc1 (stereo partly shown) [Compound I-281] | 100 to 5000 | – | – | – |
| CC(C)Oc1ccc(S(=O)(=O)N2C[C@H](n3nc(CC(=O)O)c4ccc(F)cc43)C[C@@H]2COc2ccccc2F)cc1 [Compound I-340] | 100 to 5000 | – | – | – |
| CCOc1ccc(S(=O)(=O)N2C[C@@H](C)[C@@H](n3nc(C(C)(C)C(=O)O)c4ccccc43)C2)cc1 [Compound I-335] | < 100 | – | – | – |
| CCOc1ccc(S(=O)(=O)N2C[C@H](n3nc(CC(=O)O)c4ccccc43)C[C@H]2C(N)=O)cc1 [Compound I-321] | 100 to 5000 | – | – | – |
| CCOc1ccc(S(=O)(=O)N2C[C@@H](C)[C@@H](n3nc(CC(=O)OC(C)C)c4ccccc43)C2)cc1 [Compound I-257] | 100 to 5000 | – | – | – |
| CCOc1ccc(S(=O)(=O)N2C[C@@H](n3nc(CC(=O)O)c4ccc(F)cc43)[C@@H](C)[C@@H]2C(N)=O)cc1 [Compound I-154] | 100 to 5000 | – | – | – |
| CCOc1ccc(S(=O)(=O)N2C[C@@H](C)[C@@H](n3nc(C(C)(OC)C(=O)O)c4ccccc43)C2)cc1 (stereo partly shown) [Compound I-286] | < 100 | – | – | – |
| CC(C)Oc1ccc(S(=O)(=O)N2C[C@H](C)[C@@H](n3nc(CC(=O)O)c4cccc(F)c43)C2)cc1 [Compound I-70] | – | < 100 | – | – |
| CC(C)Oc1ccc(S(=O)(=O)N2C[C@@H](C)[C@@H](n3nc(CC(=O)O)c4ccc(Cl)cc43)C2)cc1 [Compound I-33] | – | – | 2.1 | – |
